In patent publication US11214563B2 (JANSSEN PHARMACEUTICA NV, priority 2019, dated 2022):

Target: human GluN1/GluN2B NMDA receptors (Homo sapiens (Human), UniProt Q05586+Q13224)
Test: Cell-based calcium flux (FLIPR) assay on cloned human NR1/NR2B ion channels expressed in mammalian cells
Conditions: standard assay, glutamate ~EC40, 10 μM glycine
Procedure: Effects of Test Articles on Cloned Human NR1/NR2B Ion Channels Expressed in Mammalian Cells
NMDA receptors are ion channels that are highly permeable to Ca^2+ ions, rendering it possible to monitor NMDA receptor function using cell-based calcium flux assay. In this assay, co-agonists glutamate and glycine are added to cells heterologously expressing human GluN1/GluN2B NMDA receptors to initiate cellular Ca^2+ influx. The time course of the changes in intracellular calcium is measured using a fluorescent dye and a FLIPR (Fluorometric Imaging Plate Reader) device.
Twenty four hours before measurements, the expression of the NMDA receptors in the stable cell line is induced with Tet-On inducible system in the presence of a non-selective NMDA receptor blocker. On the day of the experiment, cell culture media is carefully washed and the cells are loaded with Calcium 5 Dye Kit (Molecular Devices) in dye loading buffer containing 137 mM NaCl, 4 mM KCl, 2 mM CaCl2), 0.5 mM MgCl2(standard assay) or 1.5 mM MgCl2 (HTS assay), 10 mM HEPES and 5 mM D-glucose; pH 7.4. After 1 h incubation at the room temperature, the dye is washed away with the assay buffer (137 mM NaCl (standard assay) or 150 mM (HTS assay), 4 mM KCl (standard assay) or 3 mM (HTS assay), 2 mM CaCl2), 0.01 mM EDTA, 10 mM HEPES and 5 mM D-glucose; pH 7.4) In the FLIPR TETRA reader, various concentrations of the test compounds are added to the cells for 5 min while fluorescence is monitored to detect potential agonist activity. Next, co-agonists, glutamate and glycine are added for another 5 minutes. The concentration of glutamate corresponding to ˜EC40 (standard assay) or EC40 (HTS assay) is used to maximize the assay's signal window and ability to detect NMDA receptor antagonists and negative allosteric modulators. A saturating concentration (10 μM) of glycine is also present in the assay. A non-selective NMDA receptor antagonist, (+)MK-801 is used as a positive control for antagonist activity. The fluorescent signal in the presence of test compounds is quantified and normalized to the signal defined by the appropriate control wells.

Sequence of human GluN1/GluN2B NMDA receptors (Q13224 27-1484, other chains not shown): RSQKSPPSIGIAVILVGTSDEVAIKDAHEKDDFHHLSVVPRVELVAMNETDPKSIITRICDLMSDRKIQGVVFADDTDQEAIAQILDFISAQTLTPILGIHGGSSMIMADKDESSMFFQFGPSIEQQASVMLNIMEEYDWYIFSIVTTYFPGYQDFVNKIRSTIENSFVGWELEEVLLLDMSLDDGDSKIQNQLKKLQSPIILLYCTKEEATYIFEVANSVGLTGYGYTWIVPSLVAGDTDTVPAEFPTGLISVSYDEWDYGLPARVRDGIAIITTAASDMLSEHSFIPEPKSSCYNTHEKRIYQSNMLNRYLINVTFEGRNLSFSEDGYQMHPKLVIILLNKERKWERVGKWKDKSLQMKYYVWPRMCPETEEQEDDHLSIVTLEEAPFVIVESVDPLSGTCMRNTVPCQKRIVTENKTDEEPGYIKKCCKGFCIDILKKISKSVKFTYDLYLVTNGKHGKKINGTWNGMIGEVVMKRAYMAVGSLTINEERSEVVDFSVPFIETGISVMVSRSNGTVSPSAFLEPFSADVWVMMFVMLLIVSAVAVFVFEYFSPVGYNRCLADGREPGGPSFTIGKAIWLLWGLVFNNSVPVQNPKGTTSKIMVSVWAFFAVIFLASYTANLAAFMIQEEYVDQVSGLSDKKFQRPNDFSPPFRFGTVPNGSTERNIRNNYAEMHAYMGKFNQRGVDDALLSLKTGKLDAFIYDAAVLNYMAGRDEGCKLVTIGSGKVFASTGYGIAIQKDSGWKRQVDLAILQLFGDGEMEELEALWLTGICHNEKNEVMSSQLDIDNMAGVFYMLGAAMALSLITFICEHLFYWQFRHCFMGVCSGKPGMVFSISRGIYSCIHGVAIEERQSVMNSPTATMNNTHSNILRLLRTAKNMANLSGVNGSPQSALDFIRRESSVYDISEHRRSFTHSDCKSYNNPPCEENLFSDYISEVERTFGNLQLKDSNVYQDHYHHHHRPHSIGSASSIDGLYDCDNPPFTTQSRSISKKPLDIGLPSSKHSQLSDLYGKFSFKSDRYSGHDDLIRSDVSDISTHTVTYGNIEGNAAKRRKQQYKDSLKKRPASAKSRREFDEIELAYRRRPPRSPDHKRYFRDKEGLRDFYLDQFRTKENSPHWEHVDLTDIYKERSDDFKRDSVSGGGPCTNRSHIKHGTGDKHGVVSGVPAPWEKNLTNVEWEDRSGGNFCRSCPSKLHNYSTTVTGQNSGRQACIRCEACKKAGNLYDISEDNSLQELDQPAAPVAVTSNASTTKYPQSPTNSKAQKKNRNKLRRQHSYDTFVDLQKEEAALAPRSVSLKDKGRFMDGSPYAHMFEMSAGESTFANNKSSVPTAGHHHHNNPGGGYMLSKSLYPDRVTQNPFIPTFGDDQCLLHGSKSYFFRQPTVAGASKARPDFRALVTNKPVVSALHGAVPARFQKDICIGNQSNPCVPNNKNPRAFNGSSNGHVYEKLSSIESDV

IC50 | Compound
122 nM | CC1CN(C(=O)Cn2ncc3ncc(-c4ccc(F)c(C(F)F)c4)nc32)C1 [Example 30, 2-[6-[3-(Difluoromethyl)-4-fluoro-phenyl]pyrazolo[3,4-b]pyrazin-1-yl]-1-(3-methylazetidin-1-yl)ethanone]
158 nM | Cc1nnc(Cn2ncc3ncc(-c4ccc(F)c(C(F)F)c4)nc32)o1 [Example 40, 2-[[6-[3-(Difluoromethyl)-4-fluoro-phenyl]pyrazolo[3,4-b]pyrazin-1-yl]methyl]-5-methyl-1,3,4-oxadiazole]
285 nM | N#Cc1cncc(Cn2ncc3ncc(-c4ccc(F)c(C(F)F)c4)nc32)c1 [Example 45, 5-[[6-[3-(Difluoromethyl)-4-fluoro-phenyl]pyrazolo[3,4-b]pyrazin-1-yl]methyl]pyridine-3-carbonitrile]
> 3000 nM | O=C1NCC(Cn2ncc3ncc(-c4ccc(F)c(OC(F)F)c4)nc32)O1 (centres unmarked) [Example 51, 5-((6-(3-(Difluoromethoxy)-4-fluorophenyl)-1H-pyrazolo[3,4-b]pyrazin-1-yl)methyl)oxazolidin-2-one]

The remaining lines, values behind:

Compound | IC50
CN(C)C(=O)Cn1nc(F)c2ncc(-c3ccc(F)c(C(F)F)c3)nc21 [Example 11, 2-[6-[3-(Difluoromethyl)-4-fluoro-phenyl]-3-fluoro-pyrazolo[3,4-b]pyrazin-1-yl]-N,N-dimethyl-acetamide] | 59 nM
CN(C)C(=O)Cn1ncc2ncc(-c3ccc(F)c(OC(F)F)c3)nc21 [Example 16, 2-[6-[3-(Difluoromethoxy)-4-fluoro-phenyl]pyrazolo[3,4-b]pyrazin-1-yl]-N,N-dimethyl-acetamide] | 72 nM
CN(C)C(=O)Cn1ncc2ncc(-c3ccc(Cl)c(OC(F)F)c3)nc21 [Example 18, 2-[6-[4-Chloro-3-(difluoromethoxy)phenyl]pyrazolo[3,4-b]pyrazin-1-yl]-N,N-dimethyl-acetamide] | 64 nM
Cc1c(F)cc(-c2cnc3cnn(CC(=O)N(C)C)c3n2)cc1F [Example 20, 2-[6-(3,5-Difluoro-4-methyl-phenyl)pyrazolo[3,4-b]pyrazin-1-yl]-N,N-dimethyl-acetamide] | 907 nM
CN(C)C(=O)Cn1ncc2ncc(-c3cc(F)c(F)c(F)c3)nc21 [Example 22, N,N-Dimethyl-2-[6-(3,4,5-trifluorophenyl)pyrazolo[3,4-b]pyrazin-1-yl]acetamide] | 489 nM
CC(F)(F)c1cc(-c2cnc3cnn(CC(=O)N4CCC4)c3n2)ccc1F [Example 27, 1-(Azetidin-1-yl)-2-[6-[3-(1,1-difluoroethyl)-4-fluoro-phenyl]pyrazolo[3,4-b]pyrazin-1-yl]ethanone] | 126 nM
CN(C)C(=O)Cn1ncc2ncc(-c3ccc(C(C)(F)F)cc3)nc21 [Example 53, 2-(6-(4-(1,1-Difluoroethyl)phenyl)-1H-pyrazolo[3,4-b]pyrazin-1-yl)-N,N-dimethylacetamide] | > 3000 nM
